From ChEMBL document CHEMBL1250514, “Fragment-based drug discovery applied to Hsp90. Discovery of two lead series with high ligand efficiency” (J Med Chem, 2010)

The compounds below were run against Heat shock protein HSP90 (Homo sapiens, UniProt P07900+P08238).
Description: Binding affinity to human N-terminal ATPase domain of Hsp90 by isothermal titration calorimetry
Compound `Nc1nc(Cl)cc(-c2ccccc2)n1` has a Kd of 2 µM.
In the case of `COc1cccc(OC)c1-c1cc(Cl)nc(N)n1`, the Kd is reported as 0.068 µM.
Work on `COc1cccc(Cl)c1-c1cc(Cl)nc(N)n1` yielded a Kd of 0.036 µM.
Compound `Nc1nc(Cl)cc(-c2ccccc2Cl)n1` has a Kd of 0.083 µM.
For `Nc1nc(Cl)cc(-c2ccc(Cl)cc2Cl)n1`, the Kd was 0.012 µM.
Compound `COc1ccc(Cl)c(-c2cc(Cl)nc(N)n2)c1` has a Kd of 0.048 µM.
Work on `COc1cc(-c2cc(Cl)nc(N)n2)c(Cl)cc1Cl` yielded a Kd of 0.0063 µM.
Compound `COc1ccc(-c2cc(Cl)nc(N)n2)c(Cl)c1` has a Kd of 0.028 µM.
With `CCN(CC)C(=O)c1ccc(O)c(Cl)c1` the Kd was 1130 µM.
`CCc1cc(C(=O)N(CC)CC)ccc1O` gave a Kd of 45 µM.
`CCN(CC)C(=O)c1ccc(O)c(C(C)C)c1` was tested, and the Kd was 7 µM.
`CCN(CC)C(=O)c1ccc(O)c(C(C)(C)C)c1` showed a Kd of 8.6 µM.
For `CCN(CC)C(=O)c1cc(C(C)C)ccc1O`, the Kd was 51 µM.
With `CCN(CC)C(=O)c1cc(C(C)(C)C)ccc1O` the Kd was 134 µM.
With `CC(C)(C)c1cc(C(=O)N2CCC(O)CC2)ccc1O` the Kd was 2.3 µM.
`CC(C)c1cc(C(=O)N2CCOCC2)ccc1O` was tested, and the Kd was 0.4 µM.
For `CC(C)c1cc(C(=O)N2CCOCC2)c(O)cc1O`, the Kd was 0.011 µM.
Compound `CC(=O)N1CCN(C(=O)c2ccc(O)c(C(C)(C)C)c2)CC1` has a Kd of 2.5 µM.
With `CC(C)(C)c1cc(C(=O)N2CCN(c3ccccn3)CC2)ccc1O` the Kd was 0.25 µM.
Work on `CC(C)(C)c1cc(C(=O)N2CCc3ccccc3C2)ccc1O` yielded a Kd of 2.5 µM.
For `CC(C)c1cc(C(=O)N2Cc3ccccc3C2)ccc1O`, the Kd was 0.068 µM.
In the case of `CC(C)c1cc(C(=O)N2CCc3ccccc3C2)ccc1O`, the Kd is reported as 0.128 µM.
